On the set-up of data set [1]: method as in earlier work. The following applies: previously-reported parent compounds, cited from earlier work; for singlet oxygen quantum yield at 355 nm, ACN / singlet oxygen quantum yield at 355 nm, DCM / singlet oxygen quantum yield at 355 nm, PBS: excitation 355 nm.
Data set [2] concerns A2780cis cells. Nature of the data set: ROS photogeneration in cells (DCFH-DA probe). Type of data set: cell-based. The following applies: 10 μM; for ROS levels after 520 nm light, normoxia: normoxia 21% O2, 520 nm, 1 h; for ROS levels in the absence of light, normoxia: dark. The protocol:
ROS levels were determined using the 2′-7′dichlorofluorescein diacetate (DCFH-DA) probe. A2780cis cells were seeded onto 96-well black plates at 2 × 10^4cells/well for 24 h in a humidified CO2 incubator either in normoxia (21% O2) or hypoxia (2% O2). Tested compounds were then administered in cell media for the allowed time. Treatments were then removed, and cells were stained with 10 μM of DCFH-DA for 0.5 h. After staining, cells were washed with PBS twice and irradiated for 1 h with LED source light from Luzchem photoreactor (Canada) fitted with green lamps (final light intensity applied of 1.5 mW/cm^2 at λmax = 520 nm). Fluorescence readings were performed in FLUOstar Omega (λexc = 488 nm and λem = 530 ± 30 nm). Non-irradiated plates were used for dark conditions, whereas treated, unstained cells were used to subtract basal fluorescence of compounds and correct fluorescence readings. Unstained cells served as blank. Three independent experiments were performed with n = 3 replicates.

Data set [3] is described as follows: Singlet oxygen generation, time-resolved NIR phosphorescence at 1275 nm. The data set is classed as physicochemical. The conditions noted are these: for singlet oxygen quantum yield at 355 nm, ACN / singlet oxygen quantum yield at 355 nm, DCM / singlet oxygen quantum yield at 355 nm, PBS: excitation 355 nm; for singlet oxygen quantum yields in DCM: excitation at 355 and 532 nm. From the text: Singlet oxygen generation was studied by time-resolved near-infrared phosphorescence by means of a customized setup. Briefly, a pulsed Nd:YAG laser (FTSS355-Q, Crystal Laser, Berlin, Germany) working at a 1 or 10 kHz repetition rate at 355 nm (0.5 μJ per pulse) or 532 nm (1.2 μJ per pulse) was used to excite the sample. A 1064 nm rugate notch filter (Edmund Optics) and an uncoated SKG-5 filter (CVI Laser Corporation) were placed in the laser path to remove any NIR emission. The light emitted by the sample was filtered with a 1000 nm long-pass filter (Edmund Optics) and later by a narrow bandpass filter at 1275 nm (BK-1270-70-B, bk Interferenzoptik). A thermoelectric-cooled NIR-sensitive photomultiplier tube assembly (H9170-45, Hamamatsu Photonics, Hamamatsu, Japan) was used as a detector. […] The time dependence of the ^1O2 phosphorescence with the signal intensity S(t) is described by eq 2, in which τT and τΔ are the lifetimes of the photosensitizer triplet state and of ^1O2 respectively, and S0 is a preexponential parameter proportional to ΦΔ. [drawing 2] 2
The ΦΔ values of the different samples were obtained by comparing S0 values of optically matched samples and using an appropriate reference by means of eq 3. [drawing 3] 3

The nature of data set [4]: Superoxide anion radical generation using DHR123. Type of data set: physicochemical. The following applies: 10 μM in PBS (0.2% DMSO); green light 505 nm. The protocol:
All compounds (10 μM) were prepared in PBS (0.2% DMSO). To this solution, DHR123 was added so that its final concentration was 10 μM. Then, the samples were irradiated in 1.0 × 0.5 cm cuvette by green light (505 nm centered LED) for indicated time intervals. Immediately, the fluorescence spectra were collected by using a Photon Technology International (PTI) fluorimeter. The excitation wavelength was set to 500 nm, the excitation and emission slit widths were 2 nm, and the integration time was set to 1 s.

Data set [5] concerns A2780cis cells. Put plainly: Cellular accumulation by ICP-MS. The data set is classed as cell-based. The following applies: 2 h treatment at 10 μM. The protocol: Briefly, A2780cis cells were seeded onto a 12-well plate (3 × 10^5 cells/well). Treatments with tested agents for 2 h were applied at 10 μM. Cisplatin was included for comparative purposes. Cells were then trypsinized, and pellets were counted. […] Three independent experiments were performed (n = 2 replicates).

Setting [6] is: excitation 532 nm, room temperature.

Here are results for nine molecules from PMC10291553, “Exploring Structure–Activity Relationships in Photodynamic Therapy Anticancer Agents Based on Ir(III)-COUPY Conjugates” (Journal of Medicinal Chemistry, 2023).

The structures appear in SMILES notation. Like-named read-outs stand apart in the source and are kept apart here.

Turning to `CCN(CC)c1ccc2c(c1)O/C(=C(/C#N)c1cc[n+](C)cc1)C=C2C` [1a], the “singlet oxygen quantum yield at 355 nm, ACN” value in data set [1] (ACN) is recorded as less than 0.01. Besides, in data set [1] (ACN, excitation 532 nm), the “singlet oxygen quantum yield at 532 nm, ACN” value is listed as less than 0.01. Also, the “singlet oxygen quantum yield at 355 nm, DCM” value in data set [1] (DCM) is listed as less than 0.01. Also, the “singlet oxygen quantum yield at 532 nm, DCM” value in data set [1] (DCM, excitation 532 nm) is given as 0.03. For the same molecule, the “singlet oxygen quantum yield at 355 nm, PBS” value in data set [1] (PBS) is on record as 0. Moreover, in data set [1] (PBS, excitation 532 nm), the “singlet oxygen quantum yield at 532 nm, PBS” value was less than 0.01.
Consider `CCCCn1c2[n+](c3cc(C(=O)NCCCNC(=O)C[n+]4ccc(/C(C#N)=C5/C=C(C)c6ccc(N(CC)CC)cc6O5)cc4)ccc31)[Ir-3]13([c]4ccccc4-c4[nH]c5ccccc5[n+]41)([c]1ccccc1-c1[nH]c4ccccc4[n+]13)[n+]1c-2ccc2ccccc21` [3a], for which, in data set [2], the “ROS levels after 520 nm light, normoxia” value is reported as “strong fluorescence signal” and the “ROS levels in the absence of light, normoxia” value (from here on “ROS levels in the absence”) was “slightly increased ROS levels”.
Turning to `CC1=C/C(=C(\C#N)c2cc[n+](C)cc2)Oc2c1cc1c3c2CCCN3CCC1` [1c], in data set [3] (room temperature), the “singlet oxygen quantum yield at 355 nm, ACN” value worked out at 0 and the “singlet oxygen quantum yield at 355 nm, PBS” value was 0. Further, in data set [3] (setting [6]), the “singlet oxygen quantum yield at 532 nm, ACN” value is on record as 0.01 and the “singlet oxygen quantum yield at 532 nm, PBS” value was less than 0.01. Further, the “singlet oxygen quantum yield at 355 nm, DCM” value in data set [3] (DCM, room temperature) was 0.03. Further, the “singlet oxygen quantum yield at 532 nm, DCM” value in data set [3] (DCM, excitation 532 nm, room temperature) is recorded as 0.03.
On to `CCCCn1c2[n+](c3cc(C(=O)NCCCNC(=O)C[n+]4ccc(/C(C#N)=C5/C=C(C)c6ccccc6O5)cc4)ccc31)[Ir-3]13([c]4ccccc4-c4[nH]c5ccccc5[n+]41)([c]1ccccc1-c1[nH]c4ccccc4[n+]13)[n+]1c-2ccc2ccccc21` [3b], for which the “ROS levels after green-light irradiation, hypoxia” value in data set [2] (hypoxia 2% O2, 520 nm) is given as “a slight increase in ROS levels”. Also, in data set [4], the “superoxide anion radical generation (DHR123 fluorescence)” value is “highest maximum emission intensity of superoxide generation”. The “singlet oxygen quantum yields in DCM” value in data set [3] (DCM) is given as “ca. 0.20”.
As for `CC1=C/C(=C(\C#N)c2cc[n+](C)cc2)Oc2ccccc21` [1b], in data set [3] (room temperature), the “singlet oxygen quantum yield at 355 nm, ACN” value is reported as 0.01 and the “singlet oxygen quantum yield at 355 nm, PBS” value amounted to 0. Also, in data set [3] (setting [6]), the “singlet oxygen quantum yield at 532 nm, ACN” value was less than 0.01 and the “singlet oxygen quantum yield at 532 nm, PBS” value is on record as less than 0.01. In addition, the “singlet oxygen quantum yield at 355 nm, DCM” value in data set [3] (DCM, room temperature) stood at 0.01.
As for `CCCCn1c2[n+](c3cc(C(=O)NCCCNC(=O)C[n+]4ccc(/C(C#N)=C5/C=C(C)c6cc7c8c(c6O5)CCCN8CCC7)cc4)ccc31)[Ir-3]13([c]4ccccc4-c4[nH]c5ccccc5[n+]41)([c]1ccccc1-c1[nH]c4ccccc4[n+]13)[n+]1c-2ccc2ccccc21` [3c], the “Intracellular Ir levels” value in data set [5] was determined as 461 ± 74 ng/10^6 cells. Also, the “ROS levels after 520 nm light, normoxia” value in data set [2] is “strong fluorescence signal”. The “superoxide anion radical generation (DHR123 fluorescence)” value in data set [4] was “fastest rates in superoxide generation”. Further, in data set [3] (DCM), the “singlet oxygen quantum yields in DCM” value was “ca. 0.20”.
As to `CCCCn1c2[n+](c3cc(C(=O)NCCCCCC(=O)NCCCNC(=O)C[n+]4ccc(/C(C#N)=C5/C=C(C)c6ccc(N(CC)CC)cc6O5)cc4)ccc31)[Ir-3]13([c]4ccccc4-c4[nH]c5ccccc5[n+]41)([c]1ccccc1-c1[nH]c4ccccc4[n+]13)[n+]1c-2ccc2ccccc21` [3d], in data set [2], the “ROS levels after 520 nm light, normoxia” value is “strong fluorescence signal” and the “ROS levels in the absence” value was “slightly increased ROS levels”.
Turning to `CCCCn1c2[n+](c3cc(C(=O)NC[C@H]4CC[C@H](C(=O)NCCCNC(=O)C[n+]5ccc(/C(C#N)=C6/C=C(C)c7ccc(N(CC)CC)cc7O6)cc5)CC4)ccc31)[Ir-3]13([c]4ccccc4-c4[nH]c5ccccc5[n+]41)([c]1ccccc1-c1[nH]c4ccccc4[n+]13)[n+]1c-2ccc2ccccc21` [3e], in data set [2], the “ROS levels after 520 nm light, normoxia” value is recorded as “strong fluorescence signal” and the “ROS levels in the absence” value is listed as “slightly increased ROS levels”.
As to `CCCCn1c2[n+](c3cc(C(=O)OC)ccc31)[Ir-3]13([c]4ccccc4-c4[nH]c5ccccc5[n+]41)([c]1ccccc1-c1[nH]c4ccccc4[n+]13)[n+]1c-2ccc2ccccc21` [2a], the “Intracellular Ir levels” value in data set [5] was 276 ± 12 ng/10^6 cells. In addition, the “singlet oxygen quantum yield at 355 nm, ACN” value in data set [1] (ACN) is given as 0.42. Besides, the “singlet oxygen quantum yield at 355 nm, DCM” value in data set [1] (DCM) is on record as 0.23. Also, the “singlet oxygen quantum yield at 355 nm, PBS” value in data set [1] (PBS) was less than 0.01.
